Measurements published in patent US10258033B2 (Eden Research PLC, priority 2005, dated 2019).

Tests used:
S. aureus = test: MIC of terpene emulsions and fresh or freeze-dried Baker's YP / SAF Mannan encapsulated terpenes against S. aureus; format: cell-based; conditions: for MIC μg/ml terpene, Bakers Freeze Dried / MIC μg/ml terpene, Bakers Fresh: encapsulated in Baker's YP; for MIC μg/ml terpene, SAF Mannan Freeze Dried / MIC μg/ml terpene, SAF Mannan Fresh: encapsulated in SAF Mannan; for MIC μg/ml terpene, Emulsion: not encapsulated
Method: The results of a protocol performed to compare the MIC of fresh versus freeze dried hollow glucan particle encapsulated terpene formulations are shown below in Table 13. A simple terpene emulsion was also tested and the results are shown for comparison.

H. pylori = conditions: cited from earlier work
[1] = Suspension and solution of citral in water; format: physicochemical
Text: In one embodiment the terpene component includes one or more terpenes which contain oxygen.

E. coli = conditions: cited from earlier work

| Compound | MIC μg/ml terpene, Bakers Freeze Dried (S. aureus) | MIC μg/ml terpene, Bakers Fresh (S. aureus) | MIC μg/ml terpene, SAF Mannan Freeze Dried (S. aureus) | MIC μg/ml terpene, SAF Mannan Fresh (S. aureus) | MIC μg/ml terpene, Emulsion (S. aureus) | concentration that inhibited the growth of H. pylori in vitro (H. pylori) | solution, maximum concentration [1] | stable suspension, maximum concentration [1] | stable suspension of hollow glucan particles incorporating citral ([1]; ppt citral) | concentration in growth media that reduced the concentration of E. coli (E. coli) | concentration with bactericidal effect (E. coli) |
| --- | --- | --- | --- | --- | --- | --- | --- | --- | --- | --- | --- |
| CC(C)=CCC/C(C)=C/CO [Geraniol] | 0.06 μg/ml terpene | 0.03 μg/ml terpene | >0.03 μg/ml terpene | 0.02 μg/ml terpene | 0.47 μg/ml terpene | 2 mg/L |  |  |  |  |  |
| CC(C)=CCCC(C)=CC=O [Citral, 3,7-dimethyl-2,6-octadien-1-al] | 0.05 μg/ml terpene | 0.01 μg/ml terpene | >0.03 μg/ml terpene | 0.01 μg/ml terpene | 0.94 μg/ml terpene |  | up to 500 ppm | up to 2500 ppm | 25 ppt | more than 0.01% | 0.08% |
| L-carvone | >0.04 μg/ml terpene | 0.1 μg/ml terpene | >0.02 μg/ml terpene | 0.01 μg/ml terpene | 3.75 μg/ml terpene |  |  |  |  |  |  |
| C=CCc1ccc(O)c(OC)c1 [Eugenol] | 0.05 μg/ml terpene | 0.03 μg/ml terpene | 0.05 μg/ml terpene | 0.01 μg/ml terpene | 0.12 μg/ml terpene |  |  |  |  |  |  |
